# According to ChEMBL document CHEMBL3045544, “Synthesis, antimicrobial and antioxidant activities of some new indole derivatives containing pyridopyrimidine and pyrazolopyridine moieties” (Med Chem Res, 2013):
# Key:
# [1] = tested on: Radical scavenging activity; test: Antioxidant activity assessed as DPPH radical scavenging activity at 25 ug/ml by spectrophotometric analysis; assay type: functional
# Pseudomonas aeruginosa = test: Antimicrobial activity against Pseudomonas aeruginosa MTCC 1688 assessed as diameter of growth inhibition zone at 500 ug/ml after 24 hr by cup-plate method; assay type: functional; settings: MTCC 1688, 24 h, read-out: DIZ
# Klebsiella pneumoniae = test: Antimicrobial activity against Klebsiella pneumoniae NCTC 13368 assessed as diameter of growth inhibition zone at 500 ug/ml after 24 hr by cup-plate method; assay type: functional; settings: NCTC 13368, 24 h, read-out: DIZ
# Aspergillus niger = test: Antimicrobial activity against Aspergillus niger MTCC 281 assessed as diameter of growth inhibition zone at 500 ug/ml after 72 hr by cup-plate method; assay type: functional; settings: MTCC 281, 72 h, read-out: DIZ
# Aspergillus oryzae = test: Antimicrobial activity against Aspergillus oryzae MTCC 3567 assessed as diameter of growth inhibition zone at 500 ug/ml after 72 hr by cup-plate method; assay type: functional; settings: MTCC 3567, 72 h, read-out: DIZ
# Aspergillus terreus = test: Antimicrobial activity against Aspergillus terreus MTCC 1782 assessed as diameter of growth inhibition zone at 500 ug/ml after 72 hr by cup-plate method; assay type: functional; settings: MTCC 1782, 72 h, read-out: DIZ
# Aspergillus flavus = test: Antimicrobial activity against Aspergillus flavus MTCC 1973 assessed as diameter of growth inhibition zone at 500 ug/ml after 72 hr by cup-plate method; assay type: functional; settings: MTCC 1973, 72 h, read-out: DIZ
# Escherichia coli = test: Antimicrobial activity against Escherichia coli MTCC 723 assessed as diameter of growth inhibition zone at 500 ug/ml after 24 hr by cup-plate method; assay type: functional; settings: MTCC 723, 24 h, read-out: DIZ
# Staphylococcus aureus = test: Antimicrobial activity against Staphylococcus aureus ATCC 29513 assessed as diameter of growth inhibition zone at 500 ug/ml after 24 hr by cup-plate method; assay type: functional; settings: ATCC 29513, 24 h, read-out: DIZ
# [2] = Metal chelating activity of the compound assessed as inhibition of ferrozine Fe2+ complex formation at 25 to 100 ug/ml after 10 min by spectrophotometric analysis; assay type: physicochemical
# [3] = Antioxidant activity assessed as ferric ion reducing activity after 20 min by FRAP assay; assay type: functional
# [4] = tested on: Radical scavenging activity; test: Antioxidant activity assessed as DPPH radical scavenging activity at 75 ug/ml by spectrophotometric analysis; assay type: functional
# [5] = tested on: Radical scavenging activity; test: Antioxidant activity assessed as DPPH radical scavenging activity at 100 ug/ml by spectrophotometric analysis; assay type: functional
SMILES,Activity [1],zone of inhibition at 500 µg/mL (Pseudomonas aeruginosa),zone of inhibition at 500 µg/mL (Klebsiella pneumoniae),zone of inhibition at 500 µg/mL (Aspergillus niger),zone of inhibition at 500 µg/mL (Aspergillus oryzae),zone of inhibition at 500 µg/mL (Aspergillus terreus),zone of inhibition at 500 µg/mL (Aspergillus flavus),zone of inhibition at 500 µg/mL (Escherichia coli),zone of inhibition at 500 µg/mL (Staphylococcus aureus),inhibition (INH) [2],Activity [3],Activity [4],Activity [5]
Cc1ccc(-c2cc(-c3c(-c4ccccc4)[nH]c4ccc(Cl)cc34)c3c(=O)[nH]cnc3n2)cc1,61.5%,5 mm,11 mm,11 mm,10 mm,9 mm,8 mm,10 mm,8 mm,–,–,–,–
Cc1ccc(-c2cc(-c3c(-c4ccccc4)[nH]c4ccc(Cl)cc34)c3c(N)n[nH]c3n2)cc1,–,9 mm,9 mm,8 mm,10 mm,11 mm,5 mm,6 mm,10 mm,Active,Dose-dependent effect,–,–
Cc1ccc2[nH]c(-c3ccccc3)c(-c3cc(-c4ccccc4)nc4[nH]nc(N)c34)c2c1,–,5 mm,9 mm,2 mm,14 mm,5 mm,6 mm,8 mm,10 mm,–,Dose-dependent effect,75.2%,68.2%
Nc1ncnc2nc(-c3ccc(Cl)cc3)cc(-c3c(-c4ccccc4)[nH]c4ccccc34)c12,66.8%,2 mm,5 mm,10 mm,2 mm,10 mm,8 mm,8 mm,10 mm,–,–,–,–
Cc1ccc(-c2cc(-c3c(-c4ccccc4)[nH]c4ccc(C)cc34)c3c(=O)[nH]cnc3n2)cc1,74.4%,10 mm,12 mm,10 mm,8 mm,10 mm,5 mm,5 mm,8 mm,–,–,–,–
O=c1[nH]cnc2nc(-c3ccccc3)cc(-c3c(-c4ccccc4)[nH]c4ccc(Cl)cc34)c12,–,8 mm,14 mm,12 mm,12 mm,10 mm,9 mm,12 mm,5 mm,–,–,74.1%,78.8%
